Data taken from patent US11117915B2, “Antibacterial aminoglycoside analogs” (Cipla USA, Inc., priority 2007, dated 2021).
In brackets after ≈: the same amount, converted by molar mass. Read-outs that look alike come from different tables or passages of the source.

Tests used:
E. coli ATCC 25922 = test: MIC assay, CLSI broth microdilution, E. coli ATCC 25922 (AECO001); format: cell-based; conditions: for MIC: Escherichia coli, read-out: MIC AECO001
Experimental: (§1) Minimum inhibitory concentrations (MIC) were determined by reference Clinical and Laboratory Standards Institute (CLSI) broth microdilution methods per M7-A7 [2006]. Quality control ranges utilizing E. coli ATCC 25922, P. aeruginosa ATCC 27853 and S. aureus ATCC 29213, and interpretive criteria for comparator agents were as published in CLSI M100-S17 [2007]. Briefly, serial two-fold dilutions of the test compounds were prepared at 2× concentration in Mueller Hinton Broth. The compound dilutions were mixed in 96-well assay plates in a 1:1 ratio with bacterial inoculum. The inoculum was prepared by suspension of a colony from an agar plate that was prepared the previous day. Bacteria were suspended in sterile saline and added to each assay plate to obtain a final concentration of 5×10^5 CFU/mL. The plates were incubated at 35° C. for 20 hours in ambient air.
These MIC assays were conducted following the same protocol as set forth in Example 110. As shown, substituted sisomicin derivatives with groups other than methyl at the 6′-position have improved activity against strains expressing the AAC6′-modifying enzymes.

P. aeruginosa ATCC 27853 = test: MIC assay, CLSI broth microdilution, P. aeruginosa ATCC 27853 (APAE001); format: cell-based; conditions: for MIC: Pseudomonas aeruginosa, read-out: MIC APAE001
Experimental: as §1

[1] = AECO001 is ATCC25922, 35° C., 20 hours
[2] = APAE001 is ATCC27853, 35° C., 20 hours

Row | SMILES | MIC (E. coli ATCC 25922; ATCC25922, 20 h) | MIC (P. aeruginosa ATCC 27853; ATCC27853, 20 h) | other results
1 | CN[C@@H]1[C@@H](O)[C@@H](O[C@@H]2[C@@H](O)[C@H](O[C@H]3OC(CNCCC(N)C4CC4)=CC[C@H]3N)[C@@H](N)C[C@H]2NC(=O)[C@@H](O)CN)OC[C@]1(C)O (stereo partly drawn) [Example 52, 6′-(3-Amino-3-cyclopropyl-propyl)-1-(3-amino-2(S)-hydroxy-propionyl)-sisomicin] |  |  | MIC AECO001 (E. coli ATCC 25922; [1]): A (MIC's of 1.0 μg/mL or less = A); MIC APAE001 (P. aeruginosa ATCC 27853; [2]): B (MIC's of greater than 1.0 μg/mL to 16.0 μg/mL = B)
2 | CN[C@@H]1[C@@H](O)[C@@H](O[C@@H]2[C@@H](O)[C@H](O[C@H]3OC(CNC[C@H]4C[C@H](O)CN4)=CC[C@H]3N)[C@@H](N)C[C@H]2NC(=O)[C@@H](O)CN)CC[C@]1(C)O [Example 53, 6′-(Methyl-4(S)-hydroxy-pyrrolidin-2(R)-yl)-1-(3-amino-2(S)-hydroxy-propionyl)-sisomicin] | 1 to 16 µg/mL (≈ 1.58 to 25.3 µM) | > 16 µg/mL | 
3 | CN[C@@H]1[C@@H](O)[C@@H](O[C@@H]2[C@@H](O)[C@H](O[C@H]3OC(CNCCCO)=CC[C@H]3N)[C@@H](N)C[C@H]2NC(=O)[C@@H](O)CN)OC[C@]1(C)O [Example 54, 6′-(3-Propanol)-1-(3-amino-2(S)-hydroxy-propionyl)-sisomicin] | < 1 µg/mL | 1 to 16 µg/mL (≈ 1.69 to 27 µM) | 
4 | CN[C@@H]1[C@@H](O)[C@@H](O[C@@H]2[C@@H](O)[C@H](O[C@H]3OC(CNCC(C)(C)N)=CC[C@H]3N)[C@@H](N)C[C@H]2NC(=O)[C@@H](O)CN)OC[C@]1(C)O [Example 55, 6′-(2-Methyl-2-amino-propyl)-1-(3-amino-2(S)-hydroxy-propionyl)-sisomicin] | 1 to 16 µg/mL (≈ 1.65 to 26.4 µM) | > 16 µg/mL | 
5 | CN[C@@H]1[C@@H](O)[C@@H](O[C@@H]2[C@@H](O)[C@H](O[C@H]3OC(CNCC4(N)CCC4)=CC[C@H]3N)[C@@H](N)C[C@H]2NC(=O)[C@@H](O)CN)OC[C@]1(C)O [Example 56, 6′-(Methyl-1-amino-cyclobutyl)-1-(3-amino-2(S)-hydroxy-propionyl)-sisomicin] | < 1 µg/mL | > 16 µg/mL | 
6 | CN[C@@H]1[C@@H](O)[C@@H](O[C@@H]2[C@@H](O)[C@H](O[C@H]3OC(CNC[C@H]4C[C@H](N)C4)=CC[C@H]3N)[C@@H](N)C[C@H]2NC(=O)[C@@H](O)CN)OC[C@]1(C)O [Example 59, 6′-(Methyl-trans-3-amino-cyclobutyl)-1-(3-amino-2(S)-hydroxy-propionyl)-sisomicin] | < 1 µg/mL | 1 to 16 µg/mL (≈ 1.62 to 25.9 µM) | 
7 | CN[C@@H]1[C@@H](O)[C@@H](O[C@@H]2[C@@H](O)[C@H](O[C@H]3OC(CNC[C@H]4C[C@H](N)C4)=CC[C@H]3N)[C@@H](N)C[C@H]2NC(=O)C2(O)CC(N)C2)OC[C@]1(C)O (some centres unmarked) [Example 60] | < 1 µg/mL | 1 to 16 µg/mL (≈ 1.55 to 24.9 µM) | 
8 | CNCC1=CC[C@@H](N)[C@@H](O[C@H]2[C@H](O)[C@@H](O[C@H]3OC[C@](C)(O)[C@H](NC)[C@H]3O)[C@H](NC(=O)C3(O)CNC3)C[C@@H]2N)O1 [Example 61] |  |  | MIC (E. coli ATCC 25922; [1]): < 1 µg/mL; MIC AECO001 (E. coli ATCC 25922; Table 3, E. coli ATCC25922): 1 µg/mL (≈ 1.78 µM); MIC (P. aeruginosa ATCC 27853; [2]): 1 to 16 µg/mL (≈ 1.78 to 28.5 µM)
9 | CN[C@@H]1[C@@H](O)[C@@H](O[C@@H]2[C@@H](O)[C@H](O[C@H]3OC(CNCCO)=CC[C@H]3N)[C@@H](N)C[C@H]2NC(=O)C2(O)CC(N)C2)OC[C@]1(C)O (some centres unmarked) [Example 62] | < 1 µg/mL | 1 to 16 µg/mL (≈ 1.65 to 26.5 µM) | 
10 | CN[C@@H]1[C@@H](O)[C@@H](O[C@@H]2[C@@H](O)[C@H](O[C@H]3OC(CNC[C@H]4C[C@H](N)C4)=CC[C@H]3N)[C@@H](N)C[C@H]2NC(=O)C2(O)CNC2)OC[C@]1(C)O [Example 63] | < 1 µg/mL | 1 to 16 µg/mL (≈ 1.59 to 25.4 µM) | 
11 | CN[C@@H]1[C@@H](O)[C@@H](O[C@@H]2[C@@H](O)[C@H](O[C@H]3OC(CNC[C@@H]4C[C@H](N)CN4)=CC[C@H]3N)[C@@H](N)C[C@H]2NC(=O)[C@@H](O)CN)OC[C@]1(C)O [Example 65, 6′-(Methyl-4(S)-amino-pyrrolidin-2(S)-yl)-1-(3-amino-2(S)-hydroxy-propionyl)-sisomicin] | 1 to 16 µg/mL (≈ 1.58 to 25.3 µM) | 1 to 16 µg/mL (≈ 1.58 to 25.3 µM) | 
12 | CN[C@@H]1[C@@H](O)[C@@H](O[C@@H]2[C@@H](O)[C@H](O[C@H]3OC(CNCC4(CN)CC4)=CC[C@H]3N)[C@@H](N)C[C@H]2NC(=O)[C@@H](O)CN)OC[C@]1(C)O [Example 66, 6′-(Methyl-1-aminomethyl-cyclopropyl)-1-(3-amino-2(S)-hydroxy-propionyl)-sisomicin] | < 1 µg/mL | 1 to 16 µg/mL (≈ 1.62 to 25.9 µM) | 
13 | CN[C@@H]1[C@@H](O)[C@@H](O[C@@H]2[C@@H](O)[C@H](O[C@H]3OC(CNCC4(N)CC4)=CC[C@H]3N)[C@@H](N)C[C@H]2NC(=O)[C@@H](O)CN)OC[C@]1(C)O [Example 67, 6′-(Methyl-1-Amino-cyclopropyl)-1-(3-amino-2(S)-hydroxy-propionyl)-sisomicin] | 1 to 16 µg/mL (≈ 1.66 to 26.5 µM) | 1 to 16 µg/mL (≈ 1.66 to 26.5 µM) | 
14 | CN[C@@H]1[C@@H](O)[C@@H](O[C@@H]2[C@@H](O)[C@H](O[C@H]3OC(CNCC(O)CCN)=CC[C@H]3N)[C@@H](N)C[C@H]2NC(=O)[C@@H](O)CN)OC[C@]1(C)O (stereo partly drawn) [Example 68, 6′-(2-Hydroxy-4-amino-butyl)-1-(3-amino-2(S)-hydroxy-propionyl)-sisomicin] | 1 to 16 µg/mL (≈ 1.61 to 25.7 µM) | 1 to 16 µg/mL (≈ 1.61 to 25.7 µM) | 
15 | CN[C@@H]1[C@@H](O)[C@@H](O[C@@H]2[C@@H](O)[C@H](O[C@H]3OC(CNC[C@H]4C[C@@H](N)[C@@H](O)C4)=CC[C@H]3N)[C@@H](N)C[C@H]2NC(=O)[C@@H](O)CN)OC[C@]1(C)O [Example 69, 6′-(Methyl-1(R)-amino-2(S)-hydroxy-cyclopent-4(S)-yl)-1-(3-amino-2(S)-hydroxy-propionyl)-sisomicin] | < 1 µg/mL | 1 to 16 µg/mL (≈ 1.54 to 24.7 µM) | 
16 | CN[C@@H]1[C@@H](O)[C@@H](O[C@@H]2[C@@H](O)[C@H](O[C@H]3OC(CNCCC4(O)CNC4)=CC[C@H]3N)[C@@H](N)C[C@H]2NC(=O)[C@@H](O)CN)OC[C@]1(C)O [Example 70, 6′-(Ethyl-2-(3-hydroxy-azetidin-3-yl))-1-(3-amino-2(S)-hydroxy-propionyl)-sisomicin] | 1 to 16 µg/mL (≈ 1.58 to 25.2 µM) | > 16 µg/mL | 
17 | CN[C@@H]1[C@@H](O)[C@@H](O[C@@H]2[C@@H](O)[C@H](O[C@H]3OC(CNCC4CC4)=CC[C@H]3N)[C@@H](N)C[C@H]2NC(=O)C(O)C2CNC2)OC[C@]1(C)O (some centres unmarked) [Example 71, 6′-Methylcyclopropyl-1-(2-(azetidin-3-yl)-2-hydroxy-acetyl)-sisomicin] | 1 to 16 µg/mL (≈ 1.63 to 26 µM) | > 16 µg/mL | 
18 | CN[C@@H]1[C@@H](O)[C@@H](O[C@@H]2[C@@H](O)[C@H](O[C@H]3OC(CNC[C@H]4C[C@H](N)C4)=CC[C@H]3N)[C@@H](N)C[C@H]2NC(=O)C(O)C2CNC2)OC[C@]1(C)O (stereo partly drawn) [Example 72, 6′-(Methyl-trans-3-amino-cyclobutyl)-1-(2-(azetidin-3-yl)-2-hydroxy-acetyl)-sisomicin] | 1 to 16 µg/mL (≈ 1.55 to 24.9 µM) | 1 to 16 µg/mL (≈ 1.55 to 24.9 µM) | 
19 | CN[C@@H]1[C@@H](O)[C@@H](O[C@@H]2[C@@H](O)[C@H](O[C@H]3OC(CNCC4CNC4)=CC[C@H]3N)[C@@H](N)C[C@H]2NC(=O)[C@@H](O)CN)OC[C@]1(C)O [Example 73, 6′-(Methyl-azetidin-3-yl)-1-(3-amino-2(S)-hydroxy-propionyl)-sisomicin] | 1 to 16 µg/mL (≈ 1.66 to 26.5 µM) | 1 to 16 µg/mL (≈ 1.66 to 26.5 µM) | 
20 | CN[C@@H]1[C@@H](O)[C@@H](O[C@@H]2[C@@H](O)[C@H](O[C@H]3OC(CNCC4(CN)CC4)=CC[C@H]3N)[C@@H](N)C[C@H]2NC(=O)C(O)C2CNC2)OC[C@]1(C)O (some centres unmarked) [Example 74, 6′-(Methyl-1-aminomethyl-cyclopropyl)-1-(2-(azetidin-3-yl)-2-hydroxy-acetyl)-sisomicin] | 1 to 16 µg/mL (≈ 1.55 to 24.9 µM) | > 16 µg/mL | 
21 | CN[C@@H]1[C@@H](O)[C@@H](O[C@@H]2[C@@H](O)[C@H](O[C@H]3OC(CNCCO)=CC[C@H]3N)[C@@H](N)C[C@H]2NC(=O)C(O)C2CNC2)OC[C@]1(C)O (some centres unmarked) [Example 75, 6′-(2-Hydroxy-ethyl)-1-(2-(azetidin-3-yl)-2-hydroxy-acetyl)-sisomicin] | 1 to 16 µg/mL (≈ 1.65 to 26.5 µM) | > 16 µg/mL | 
22 | CN[C@@H]1[C@@H](O)[C@@H](O[C@@H]2[C@@H](O)[C@H](O[C@H]3OC(CNCCCN)=CC[C@H]3N)[C@@H](N)C[C@H]2NC(=O)C(O)C2CNC2)OC[C@]1(C)O (some centres unmarked) [Example 76, 6′-(3-Amino-propyl)-1-(2-(azetidin-3-yl)-2-hydroxy-acetyl)-sisomicin] | 1 to 16 µg/mL (≈ 1.62 to 25.9 µM) | 1 to 16 µg/mL (≈ 1.62 to 25.9 µM) | 
23 | CN[C@@H]1[C@@H](O)[C@@H](O[C@@H]2[C@@H](O)[C@H](O[C@H]3OC(CNCC(O)CCN)=CC[C@H]3N)[C@@H](N)C[C@H]2NC(=O)C(O)C2CNC2)OC[C@]1(C)O (some centres unmarked) [Example 77, 6′-(2-Hydroxy-4-amino-butyl)-1-(2-(azetidin-3-yl)-2-hydroxy-acetyl)-sisomicin] | 1 to 16 µg/mL (≈ 1.54 to 24.7 µM) | 1 to 16 µg/mL (≈ 1.54 to 24.7 µM) | 
